According to ChEMBL document CHEMBL5620361, “A prodrug of the capsid assembly modulator improved druggability and lowing HBsAg and HBeAg for the treatment of chronic hepatitis B” (Eur J Med Chem, 2023):
“And” between values parts separate entries of the source, which are not always exact repeats. Equal values may be shown once. The source made the active and inactive calls. The rule behind the calls is not given here.

What was measured:
[1] = Prodrug conversion in ICR mouse assessed as Cmax of 4-((4-(5-chloro-2-fluoro-6-((3-hydroxypropyl)amino)pyridin-3-yl)-1-oxophthalazin-2(1H)-yl)methyl)benzonitrile metabolite at 20 mg/kg, po measured for 24 hrs by LC-MS/MS analysis; format: ADME, organism-based; conditions: in vivo
[2] = Prodrug conversion in ICR mouse assessed as Cmax of 3-((3-chloro-5-(3-(4-cyanobenzyl)-4-oxo-3,4-dihydrophthalazin-1-yl)-6-fluoropyridin-2-yl)amino)propanoic acid metabolite at 20 mg/kg, po measured for 24 hrs by LC-MS/MS analysis; format: ADME, organism-based; conditions: in vivo
[3] = Prodrug conversion in ICR mouse assessed as AUClast of 3-((3-chloro-5-(3-(4-cyanobenzyl)-4-oxo-3,4-dihydrophthalazin-1-yl)-6-fluoropyridin-2-yl)amino)propanoic acid metabolite at 20 mg/kg, po measured for 24 hrs by LC-MS/MS analysis; format: ADME, organism-based; conditions: in vivo
[4] = Prodrug conversion in ICR mouse assessed as AUClast of 4-((4-(5-chloro-2-fluoro-6-((3-hydroxypropyl)amino)pyridin-3-yl)-1-oxophthalazin-2(1H)-yl)methyl)benzonitrile metabolite at 20 mg/kg, po measured for 24 hrs by LC-MS/MS analysis; format: ADME, organism-based; conditions: in vivo
Hepatitis B virus [5] = test: Antiviral activity against HBV in human HepG2.2.15 cells harboring HBV genome assessed as formation of fast-migrating capsids lacking capsid-associated HBV DNA upto 80 nM by native agarose gel electrophoresis; format: functional, organism-based
[6] = AUClast in ICR mouse at 20 mg/kg, po measured for 24 hrs byb LC-MS/MS analysis; format: ADME, organism-based; conditions: in vivo
[7] = Prodrug conversion in ICR mouse assessed as Tmax of 3-((3-chloro-5-(3-(4-cyanobenzyl)-4-oxo-3,4-dihydrophthalazin-1-yl)-6-fluoropyridin-2-yl)amino)propanoic acid metabolite at 20 mg/kg, po measured for 24 hrs by LC-MS/MS analysis; format: ADME, organism-based; conditions: in vivo
[8] = Cmax in ICR mouse at 20 mg/kg, po measured for 24 hrs byb LC-MS/MS analysis; format: ADME, organism-based; conditions: in vivo
[9] = Tmax in ICR mouse at 20 mg/kg, po measured for 24 hrs byb LC-MS/MS analysis; format: ADME, organism-based; conditions: in vivo
[10] = Cytotoxicity against human HepG2.2.15 cells harboring HBV genome incubated for 8 days by MTT assay; format: toxicity, cell-based, HepG2 2.2.15; conditions: time 8 day
Hepatitis B virus [11] = test: Antiviral activity against HBV in human HepG2.2.15 cells harboring HBV genome assessed as reduction in HBV rcDNA incubated for 8 days by Southern blot analysis; format: functional, organism-based; conditions: dose <= 800.0 nM, time 8.0 day
Hepatitis B virus [12] = test: Antiviral activity against HBV in human HepG2.2.15 cells harboring HBV genome assessed as reduction in HBV ssDNA incubated for 8 days by Southern blot analysis; format: functional, organism-based; conditions: dose <= 800.0 nM, time 8.0 day
[13] = Half life in ICR mouse at 20 mg/kg, po measured for 24 hrs byb LC-MS/MS analysis; format: ADME, organism-based; conditions: in vivo
HepG2.2.15 [14] = test: Inhibition of HBeAg secretion in human HepG2.2.15 cells harboring HBV genome incubated for 8 days; format: functional, cell-based; conditions: Hepatitis B virus, time 8.0 day
HepG2.2.15 [15] = test: Inhibition of HBsAg secretion in human HepG2.2.15 cells harboring HBV genome incubated for 8 days; format: functional, cell-based; conditions: Hepatitis B virus, time 8.0 day
Hepatitis B virus [16] = test: Antiviral activity against HBV in mouse model infected with adeno-associated virus harbouring HBV genome assessed as log reduction in HBeAg at 20 mg/kg, po qd for 8 weeks; format: functional
Hepatitis B virus [17] = test: Antiviral activity against HBV in mouse model infected with adeno-associated virus harbouring HBV genome assessed as log reduction in HBV DNA at 20 mg/kg, po qd for 8 weeks; format: functional
Hepatitis B virus [18] = test: Antiviral activity against HBV in mouse model infected with adeno-associated virus harbouring HBV genome assessed as log reduction in HBsAg at 20 mg/kg, po qd for 8 weeks; format: functional
Mus musculus [19] = test: Effect on HBeAg expression in Balb/c mouse model infected with adeno-associated virus harbouring HBV 1.3 genome at 1 mg/kg, po qd for 7 weeks followed by drug removal measured after 8 weeks by chemiluminescence immunoassay; format: functional, organism-based
Hepatitis B virus [20] = test: Antiviral activity against HBV in Balb/c mouse model infected with adeno-associated virus harbouring HBV 1.3 genome assessed as reduction in intrahepatic HBV DNA at 1 mg/kg, po qd for 4 weeks by Southern blot analysis; format: functional, organism-based
Mus musculus [21] = test: Effect on intrahepatic HBcAg expression in Balb/c mouse model infected with adeno-associated virus harbouring HBV 1.3 genome at 1 mg/kg, po qd for 4 weeks by Western blot analysis; format: functional, organism-based
Mus musculus [22] = test: Effect on HBsAg expression in Balb/c mouse model infected with adeno-associated virus harbouring HBV 1.3 genome at 1 mg/kg, po qd for 7 weeks followed by drug removal measured after 8 weeks by chemiluminescence immunoassay; format: functional, organism-based
Hepatitis B virus [23] = test: Antiviral activity against HBV in Balb/c mouse model infected with adeno-associated virus harbouring HBV 1.3 genome assessed as reduction in plasma HBV DNA at 1 mg/kg, po qd for 7 weeks followed by drug removal measured after 8 weeks by real-time PCR analysis; format: functional, organism-based
Hepatitis B virus [24] = test: Antiviral activity against HBV in human HepG2.2.15 cells harboring HBV genome assessed as reduction in HBV DNA incubated for 8 days by real-time PCR analysis; format: functional, organism-based
[25] = Prodrug conversion in ICR mouse assessed as half life of 4-((4-(5-chloro-2-fluoro-6-((3-hydroxypropyl)amino)pyridin-3-yl)-1-oxophthalazin-2(1H)-yl)methyl)benzonitrile metabolite at 20 mg/kg, po measured for 24 hrs by LC-MS/MS analysis; format: ADME, organism-based; conditions: in vivo
Hepatitis B virus [26] = test: Antiviral activity against HBV in Balb/c mouse model infected with adeno-associated virus harbouring HBV 1.3 genome assessed as reduction in plasma HBsAg level at 100 mg/kg, po bid for 7 weeks followed by drug removal measured after 8 weeks by chemiluminescence immunoassay; format: functional, organism-based
[27] = Toxicity in Balb/c mouse model infected with adeno-associated virus harbouring HBV 1.3 genome at 100 mg/kg, po bid; format: organism-based; conditions: in vivo
Hepatitis B virus [28] = test: Antiviral activity against HBV in Balb/c mouse model infected with adeno-associated virus harbouring HBV 1.3 genome assessed as reduction in plasma HBV DNA at 100 mg/kg, po bid for 7 weeks followed by drug removal measured after 8 weeks by real-time PCR analysis; format: functional, organism-based
Hepatitis B virus [29] = test: Antiviral activity against HBV in Balb/c mouse model infected with adeno-associated virus harbouring HBV 1.3 genome assessed as reduction in serum HBV DNA administered orally twice daily for 4 weeks by real-time PCR analysis; format: functional, organism-based; conditions: dose 25-75 mg/kg, route po
[30] = Prodrug conversion in ICR mouse assessed as Tmax of 4-((4-(5-chloro-2-fluoro-6-((3-hydroxypropyl)amino)pyridin-3-yl)-1-oxophthalazin-2(1H)-yl)methyl)benzonitrile metabolite at 20 mg/kg, po measured for 24 hrs by LC-MS/MS analysis; format: ADME, organism-based; conditions: in vivo
[31] = Prodrug conversion in ICR mouse assessed as half life of 3-((3-chloro-5-(3-(4-cyanobenzyl)-4-oxo-3,4-dihydrophthalazin-1-yl)-6-fluoropyridin-2-yl)amino)propanoic acid metabolite at 20 mg/kg, po measured for 24 hrs by LC-MS/MS analysis; format: ADME, organism-based; conditions: in vivo
Hepatitis B virus [32] = test: Antiviral activity against HBV in Balb/c mouse model infected with adeno-associated virus harbouring HBV 1.3 genome assessed as reduction in cytoplasmic HBcAg level at 50 to 75 mg/kg, po bid for 4 weeks by IHC analysis; format: functional, organism-based; conditions: dose 50-75 mg/kg
Hepatitis B virus [33] = test: Antiviral activity against HBV in Balb/c mouse model infected with adeno-associated virus harbouring HBV 1.3 genome assessed as reduction in intrahepatic HBcAg level administered orally twice daily for 4 weeks by Western blot analysis; format: functional, organism-based; conditions: dose 50-75 mg/kg, route po
Hepatitis B virus [34] = test: Antiviral activity against HBV in Balb/c mouse model infected with adeno-associated virus harbouring HBV 1.3 genome assessed as reduction in plasma HBeAg level at 100 mg/kg, po bid for 7 weeks followed by drug removal measured after 8 weeks by chemiluminescence immunoassay; format: functional, organism-based
Hepatitis B virus [35] = test: Antiviral activity against HBV in Balb/c mouse model infected with adeno-associated virus harbouring HBV 1.3 genome assessed as reduction in intrahepatic HBV DNA administered orally twice daily for 4 weeks by Southern blot analysis; format: functional, organism-based; conditions: dose 50-75 mg/kg, route po

SMILES | Cmax [1] [ng/mL] | Cmax [2] [ng/mL] | AUClast [3] [ng·h/mL] | AUClast [4] [ng·h/mL] | Activity (Hepatitis B virus [5]) | Tmax [7] [h] | CC50 at 192 h [10] [nM] | Activity (Hepatitis B virus [11]) | Activity (Hepatitis B virus [12]) | inhibition (HepG2.2.15 [14]) | inhibition (HepG2.2.15 [15]) | further results
CC(C)OC(=O)[C@@H](C)N[P@](=O)(OCCCNc1nc(F)c(-c2nn(Cc3ccc(C#N)cc3)c(=O)c3ccccc23)cc1Cl)Oc1ccccc1 (single isomer, unassigned) | 48.2 | 321 | 2727 | 186 |  |  |  |  |  |  |  | 
N#Cc1ccc(Cn2nc(-c3cc(Cl)c(NCCCO)nc3F)c3ccccc3c2=O)cc1 |  | 62.2 | 498 |  | Active | 2.67 | > 100000 | Dose-Dependent Effect | Dose-Dependent Effect | inactive | inactive | AUC(0-t) at 24 h [6]: 61.4 ng·h/mL; Cmax [8]: 27 ng/mL; Tmax [9]: 2 h; half-life [13]: 0.99 h
CCOC(=O)C1=C(CN2CCN3C(=O)N(CC(C)(C)C(=O)O)C[C@@H]3C2)N=C(c2nccs2)N[C@H]1c1cccc(F)c1C [LINVENCORVIR] |  |  |  |  |  |  |  |  |  |  |  | log(activity) (Hepatitis B virus [16]): 1.5; log(activity) (Hepatitis B virus [17]): 3; log(activity) (Hepatitis B virus [18]): 2.4
C=C1[C@H](CO)[C@@H](O)C[C@@H]1n1cnc2c(=O)[nH]c(N)nc21 [ENTECAVIR ANHYDROUS] |  |  |  |  |  |  | > 1000 |  |  |  |  | Activity (Mus musculus [19]): inactive; Activity (Hepatitis B virus [20]): Active; Activity (Mus musculus [21]): inactive; Activity (Mus musculus [22]): inactive; Activity (Hepatitis B virus [23]): Active
N#Cc1ccc(Cn2nc(-c3cc(Cl)c(NCCC(=O)O)nc3F)c3ccccc3c2=O)cc1 |  |  |  |  | Active |  | > 100000 | Dose-Dependent Effect | Dose-Dependent Effect | inactive | inactive | EC50 (Hepatitis B virus [24]): 1290 nM and 170 nM
CC(C)[C@H](N)C(=O)OCCCNc1nc(F)c(-c2nn(Cc3ccc(C#N)cc3)c(=O)c3ccccc23)cc1Cl | 1065 | 3729 | 13560 | 2296 | Active | 1.67 | 63100 | Dose-Dependent Effect | Dose-Dependent Effect | inactive | inactive | t1/2 [25]: 2.32 h; Activity (Hepatitis B virus [26]): Active; Activity [27]: Non-Toxic; Activity (Hepatitis B virus [28]): Active; Activity (Hepatitis B virus [29]): Dose-Dependent Effect; Tmax [30]: 0.42 h; t1/2 [31]: 2.85 h; Activity (Hepatitis B virus [32]): Dose-Dependent Effect; Activity (Hepatitis B virus [33]): Dose-Dependent Effect; Activity (Hepatitis B virus [34]): Active; Activity (Hepatitis B virus [35]): Dose-Dependent Effect
